# Test results from US20050239656A1, “Pyridine compounds or salts thereof and herbicides containing the same” (priority 2002, published 2005).
# System: barnyardgrass
# Test: Test Example 1: foliage treatment, upland pot test
# Assay type: in vivo, Echinochloa crus-galli L.
# Details: active ingredient 1000 g/ha, observed 18th to 23rd day, 0 = non-treated, 100 = complete kill
# Excerpt: (§1) Upland field soil was put into a 1/170,000 ha pot, and seed of various plants were sown. Then, when the plants reached predetermined leaf stages ((1) barnyardgrass: 1.3 to 2.8 leaf stages, (2) crabgrass: 1.0 to 2.8 leaf stages, (3) green foxtail: 1.3 to 2.6 leaf stages, (4) redroot pigweed: 0.1 to 1.2 leaf stages, (5) prickly sida: 0.1 to 1.2 leaf stages, (6) velvetleaf: 0.1 to 1.2 leaf stages, (7) tall morningglory: 0.1 to 1.5 leaf stages, (8) rice: 1.2 to 2.6 leaf stages, (9) wheat: 1.3 to 2.4 leaf stages, (10) corn, 2.1 to 3.2 leaf stages, (11) soybean: 0.1 to 0.4 leaf stage), a wettable powder or emulsifiable concentrate having the compound of the present invention formulated in accordance with a usual formulation method, was weighed so that the active ingredient would be a predetermined amount, and diluted with water in an amount of 500 L/ha. To the diluted solution, 0.1% (v/v) of agricultural spreader was added. The herbicide thus adjusted was applied by a small size sprayer for foliage treatment. On the 18th to 23rd days after the application of the herbicide, the growth of the respective plants was visually observed, and the herbicidal effects were evaluated by the growth controlling degrees (%) ranging from 0 (equivalent to the non-treated plot) to 100 (complete kill), whereby the results shown in Table 3, were obtained.
row,SMILES,Growth controlling degree (%) Barnyardgrass [%]
1,CC(C)C(c1cnccc1Cl)N(C)C(=O)Cc1ccc(F)c(F)c1 (stereo not drawn) [I-73],40

# System: redroot pigweed
# Test: Test Example 1: foliage treatment, upland pot test
# Assay type: in vivo, Amaranthus retroflexus L.
# Details: active ingredient 1000 g/ha, observed 18th to 23rd day, 0 = non-treated, 100 = complete kill
# Excerpt: as §1
row,SMILES,Growth controlling degree (%) Redroot pigweed [%]
1,CC(C)C(c1cnccc1Cl)N(C)C(=O)Cc1ccc(F)c(F)c1 (stereo not drawn) [I-73],60

# System: prickly sida
# Test: Test Example 1: foliage treatment, upland pot test
# Assay type: in vivo, Sida spinosa L.
# Details: active ingredient 1000 g/ha, observed 18th to 23rd day, 0 = non-treated, 100 = complete kill
# Excerpt: as §1
row,SMILES,Growth controlling degree (%) Prickly sida [%]
1,CC(C)C(c1cnccc1Cl)N(C)C(=O)Cc1ccc(F)c(F)c1 (stereo not drawn) [I-73],85

# System: velvetleaf
# Test: Test Example 1: foliage treatment, upland pot test
# Assay type: in vivo, Abutilon theophrasti MEDIC.
# Details: active ingredient 1000 g/ha, observed 18th to 23rd day, 0 = non-treated, 100 = complete kill
# Excerpt: as §1
row,SMILES,Growth controlling degree (%) Velvetleaf [%]
1,CC(C)C(c1cnccc1Cl)N(C)C(=O)Cc1ccc(F)c(F)c1 (stereo not drawn) [I-73],90

# System: rice
# Test: Test Example 1: foliage treatment, upland pot test
# Assay type: in vivo, Oryza sativa L.
# Details: crop, active ingredient 1000 g/ha, observed 18th to 23rd day, 0 = non-treated, 100 = complete kill
# Excerpt: as §1
row,SMILES,Growth controlling degree (%) Rice [%]
1,CC(C)C(c1cnccc1Cl)N(C)C(=O)Cc1ccc(F)c(F)c1 (stereo not drawn) [I-73],30

# System: corn
# Test: Test Example 1: foliage treatment, upland pot test
# Assay type: in vivo, Zea mays L.
# Details: crop, active ingredient 1000 g/ha, observed 18th to 23rd day, 0 = non-treated, 100 = complete kill
# Excerpt: as §1
row,SMILES,Growth controlling degree (%) Corn [%]
1,CC(C)C(c1cnccc1Cl)N(C)C(=O)Cc1ccc(F)c(F)c1 (stereo not drawn) [I-73],0

# System: soybean
# Test: Test Example 1: foliage treatment, upland pot test
# Assay type: in vivo, Glycine max Merr.
# Details: crop, active ingredient 1000 g/ha, observed 18th to 23rd day, 0 = non-treated, 100 = complete kill
# Excerpt: as §1
row,SMILES,Growth controlling degree (%) Soybean [%]
1,CC(C)C(c1cnccc1Cl)N(C)C(=O)Cc1ccc(F)c(F)c1 (stereo not drawn) [I-73],70

# System: barnyardgrass
# Test: Test Example 2: soil surface treatment, upland pot test
# Assay type: in vivo, Echinochloa crus-galli L.
# Details: active ingredient 500 g/ha, observed 20th to 28th day
# Summary of the method: (§2)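 Upland soil in pots of 1/170,000 ha is sown; on day 1 after sowing the formulated compound (wettable powder or emulsifiable concentrate, predetermined a.i. amount, water volume 1,500 L/ha) is applied to the soil surface with a small sprayer. Percent control is judged by eye 20–28 days later.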
row,SMILES,Growth controlling degree (%) Barnyardgrass [%]
1,CC(C)C(c1cnccc1C(F)(F)F)N(C)C(=O)Cc1cc(F)cc(C(F)(F)F)c1 (stereo not drawn) [Compound I-97],60

# System: crabgrass
# Test: as above
# Assay type: in vivo, Digitaria sanguinalis L.
# Details: active ingredient 500 g/ha, observed 20th to 28th day
# Summary of the method: as §2
row,SMILES,Growth controlling degree (%) Crabgrass [%]
1,CC(C)C(c1cnccc1C(F)(F)F)N(C)C(=O)Cc1cc(F)cc(C(F)(F)F)c1 (stereo not drawn) [Compound I-97],98

# System: green foxtail
# Test: as above
# Assay type: in vivo, Setaria viridis L.
# Details: active ingredient 500 g/ha, observed 20th to 28th day
# Summary of the method: as §2
row,SMILES,Growth controlling degree (%) Green foxtail [%]
1,CC(C)C(c1cnccc1C(F)(F)F)N(C)C(=O)Cc1cc(F)cc(C(F)(F)F)c1 (stereo not drawn) [Compound I-97],100

# System: redroot pigweed
# Test: as above
# Assay type: in vivo, Amaranthus retroflexus L.
# Details: active ingredient 500 g/ha, observed 20th to 28th day
# Summary of the method: as §2
row,SMILES,Growth controlling degree (%) Redroot pigweed [%]
1,CC(C)C(c1cnccc1C(F)(F)F)N(C)C(=O)Cc1cc(F)cc(C(F)(F)F)c1 (stereo not drawn) [Compound I-97],60

# System: prickly sida
# Test: as above
# Assay type: in vivo, Sida spinosa L.
# Details: active ingredient 500 g/ha, observed 20th to 28th day
# Summary of the method: as §2
row,SMILES,Growth controlling degree (%) Prickly sida [%]
1,CC(C)C(c1cnccc1C(F)(F)F)N(C)C(=O)Cc1cc(F)cc(C(F)(F)F)c1 (stereo not drawn) [Compound I-97],90

# System: velvetleaf
# Test: as above
# Assay type: in vivo, Abutilon theophrasti MEDIC.
# Details: active ingredient 500 g/ha, observed 20th to 28th day
# Summary of the method: as §2
row,SMILES,Growth controlling degree (%) Velvetleaf [%]
1,CC(C)C(c1cnccc1C(F)(F)F)N(C)C(=O)Cc1cc(F)cc(C(F)(F)F)c1 (stereo not drawn) [Compound I-97],40

# System: rice
# Test: as above
# Assay type: in vivo, Oryza sativa L.
# Details: active ingredient 500 g/ha, observed 20th to 28th day
# Summary of the method: as §2
row,SMILES,Growth controlling degree (%) Rice [%]
1,CC(C)C(c1cnccc1C(F)(F)F)N(C)C(=O)Cc1cc(F)cc(C(F)(F)F)c1 (stereo not drawn) [Compound I-97],40

# System: corn
# Test: as above
# Assay type: in vivo, Zea mays L.
# Details: active ingredient 500 g/ha, observed 20th to 28th day
# Summary of the method: as §2
row,SMILES,Growth controlling degree (%) Corn [%]
1,CC(C)C(c1cnccc1C(F)(F)F)N(C)C(=O)Cc1cc(F)cc(C(F)(F)F)c1 (stereo not drawn) [Compound I-97],20

# System: soybean
# Test: as above
# Assay type: in vivo, Glycine max Merr.
# Details: active ingredient 500 g/ha, observed 20th to 28th day
# Summary of the method: as §2
row,SMILES,Growth controlling degree (%) Soyabean [%]
1,CC(C)C(c1cnccc1C(F)(F)F)N(C)C(=O)Cc1cc(F)cc(C(F)(F)F)c1 (stereo not drawn) [Compound I-97],10

# System: barnyardgrass
# Test: Test Example 3: paddy pot test, application under submerged conditions
# Assay type: in vivo, Echinochloa crus-galli L.
# Details: active ingredient 125 g/ha; submerged application at 0.5 leaf stage; visually observed 14 days after application; 0 = non-treated, 100 = complete kill
# Summary of the method: (§3)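 Visual growth-control rating (0 = untreated, 100 = complete kill) 14 days after treatment. The formulated compound, as a diluted wettable powder or emulsifiable concentrate, went into 3–4 cm flood water at a predetermined active-ingredient dose once the weeds reached 0.5 leaf stage (wapato: primary leaf stage).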
row,SMILES,Growth controlling degree (%) Barnyardgrass [%]
1,CC(C)C(c1cnccc1Cl)N(C)C(=O)Cc1ccc(F)c(F)c1 (stereo not drawn) [I-73],98

# Same assay, conditions: active ingredient 250 g/ha; submerged application at 0.5 leaf stage; visually observed 14 days after application; 0 = non-treated, 100 = complete kill
row,SMILES,Growth controlling degree (%) Barnyardgrass [%]
1,CC(C)C(c1cnccc1C(F)(F)F)N(C)C(=O)Cc1cc(F)cc(C(F)(F)F)c1 (stereo not drawn) [Compound I-97],100

# System: japanese bulrush
# Test: as above
# Assay type: in vivo, Scirpus juncoides
# Details: active ingredient 125 g/ha; submerged application at 0.5 leaf stage; visually observed 14 days after application; 0 = non-treated, 100 = complete kill
# Summary of the method: as §3
row,SMILES,Growth controlling degree (%) Japanese bulrush [%]
1,CC(C)C(c1cnccc1Cl)N(C)C(=O)Cc1ccc(F)c(F)c1 (stereo not drawn) [I-73],90

# Same assay, conditions: active ingredient 250 g/ha; submerged application at 0.5 leaf stage; visually observed 14 days after application; 0 = non-treated, 100 = complete kill
row,SMILES,Growth controlling degree (%) Japanese bulrush [%]
1,CC(C)C(c1cnccc1C(F)(F)F)N(C)C(=O)Cc1cc(F)cc(C(F)(F)F)c1 (stereo not drawn) [Compound I-97],80

# System: japanese ribbon wapato
# Test: as above
# Assay type: in vivo, Sagittaria pygniaea
# Details: active ingredient 125 g/ha; submerged application at primary leaf stage; visually observed 14 days after application; 0 = non-treated, 100 = complete kill
# Summary of the method: as §3
row,SMILES,Growth controlling degree (%) Japanese ribbon wapato [%]
1,CC(C)C(c1cnccc1Cl)N(C)C(=O)Cc1ccc(F)c(F)c1 (stereo not drawn) [I-73],20

# Same assay, conditions: active ingredient 250 g/ha; submerged application at primary leaf stage; visually observed 14 days after application; 0 = non-treated, 100 = complete kill
row,SMILES,Growth controlling degree (%) Japanese ribbon wapato [%]
1,CC(C)C(c1cnccc1C(F)(F)F)N(C)C(=O)Cc1cc(F)cc(C(F)(F)F)c1 (stereo not drawn) [Compound I-97],0

# System: rice (var. Nihonbare)
# Test: Test Example 3: paddy pot test, transplanted rice
# Assay type: in vivo, Oryza sativa L.
# Details: active ingredient 125 g/ha, applied 4th day after transplantation, visually observed 21st day after application, 0 = non-treated, 100 = complete kill
# Summary of the method: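 Rice (var. Nihonbare) at 2 leaf stage transplanted 3 cm deep into puddled paddy soil under 3–4 cm flooding; on day 4 after transplanting, diluted wettable powder or emulsifiable concentrate applied by pipette under submerged conditions at a set active-ingredient dose. Growth scored visually 21 days after application, 0 (untreated) to 100 (complete kill) %.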
row,SMILES,Growth controlling degree (%) Rice [%]
1,CC(C)C(c1cnccc1Cl)N(C)C(=O)Cc1ccc(F)c(F)c1 (stereo not drawn) [I-73],0

# Same assay, conditions: active ingredient 250 g/ha, applied 4th day after transplantation, visually observed 21st day after application, 0 = non-treated, 100 = complete kill
row,SMILES,Growth controlling degree (%) Rice [%]
1,CC(C)C(c1cnccc1C(F)(F)F)N(C)C(=O)Cc1cc(F)cc(C(F)(F)F)c1 (stereo not drawn) [Compound I-97],0
